# Assay results published in patent publication US20210045385A1, “PYRIDAZINONE-SUBSTITUTED KETOXIMES AS HERBICIDES” (FMC Corporation, priority 2018, published 2021).
# What was measured:
# Assay type in all cases: in vivo
# [1] = test system: barnyardgrass (Echinochloa crus-galli); test: Test A preemergence, visual plant response rating; conditions: for Barnyardgrass plant response rating (0 to 100 scale): approx. 10 days
# From the text: (§1) Seeds of plant species selected from barnyardgrass (Echinochloa crus-galli), kochia (Kochia scoparia), ragweed (common ragweed, Ambrosia elatior), Italian ryegrass (Lolium multiflorum), foxtail, giant (giant foxtail, Setaria faberii), foxtail, green (green foxtail, Setaria viridis), and pigweed (Amaranthus retroflexus) were planted into a blend of loam soil and sand and treated preemergence with a directed soil spray using test chemicals formulated in a non-phytotoxic solvent mixture which included a surfactant.
# (§2) At the same time, plants selected from these weed species and also wheat (Triticum aestivum), corn (Zea mays), blackgrass (Alopecurus myosuroides), and galium (catchweed bedstraw, Galium aparine) were planted in pots containing the same blend of loam soil and sand and treated with postemergence applications of test chemicals formulated in the same manner. Plants ranged in height from 2 to 10 cm and were in the one- to two-leaf stage for the postemergence treatment. Treated plants and untreated controls were maintained in a greenhouse for approximately 10 days, after which time all treated plants were compared to untreated controls and visually evaluated for injury. Plant response ratings, summarized in Table A, are based on a 0 to 100 scale where 0 is no effect and 100 is complete control. A dash (-) response means no test result.
# [2] = test system: Italian ryegrass (Lolium multiflorum); test: Test A preemergence, visual plant response rating; conditions: for Ryegrass, Italian plant response rating (0 to 100 scale): approx. 10 days
# From the text: as §1, §2
# [3] = test system: pigweed (Amaranthus retroflexus); test: Test A preemergence, visual plant response rating; conditions: for Pigweed plant response rating (0 to 100 scale): approx. 10 days
# From the text: as §1, §2
# kochia (Kochia scoparia) [4] = test: Test A preemergence, visual plant response rating; conditions: for Kochia plant response rating (0 to 100 scale): approx. 10 days
# From the text: as §1, §2
# [5] = test system: foxtail, giant (giant foxtail, Setaria faberii); test: Test A preemergence, visual plant response rating; conditions: for Foxtail, Giant plant response rating (0 to 100 scale): approx. 10 days
# From the text: as §1, §2
# [6] = test system: ragweed (common ragweed, Ambrosia elatior); test: Test A preemergence, visual plant response rating; conditions: approx. 10 days
# From the text: as §1, §2
# [7] = test system: barnyardgrass (Echinochloa crus-galli); test: Test B flooded paddy test, visual plant response rating; conditions: 250 g ai/ha, Flood, applied to paddy water, 2-leaf stage, evaluated after 13 to 15 days
# Protocol: (§3) Plant species in the flooded paddy test selected from rice (Oryza sativa), sedge, umbrella (small-flower umbrella sedge, Cyperus difformis), ducksalad (Heteranhera limosa), and barnyardgrass (Echinochloa crus-galli) were grown to the 2-leaf stage for testing. At time of treatment, test pots were flooded to 3 cm above the soil surface treated by application of test compounds directly to the paddy water, and then maintained at that water depth for the duration of the test. Treated plants and controls were maintained in a greenhouse for 13 to 15 days, after which time all species were compared to controls and visually evaluated. […] A dash (-) response means no test result.
# [8] = test system: sedge, umbrella (small-flower umbrella sedge, Cyperus difformis); test: as above; conditions: 250 g ai/ha, Flood, applied to paddy water, 2-leaf stage, evaluated after 13 to 15 days
# Protocol: as §3
# [9] = test system: ducksalad (Heteranhera limosa); test: as above; conditions: 250 g ai/ha, Flood, applied to paddy water, 2-leaf stage, evaluated after 13 to 15 days
# Protocol: as §3
# rice (Oryza sativa) = test: as above; conditions: 250 g ai/ha, Flood, applied to paddy water, 2-leaf stage, evaluated after 13 to 15 days
# Protocol: as §3
# [10] = test system: galium (catchweed bedstraw, Galium aparine); test: Test A postemergence, visual plant response rating; conditions: for Galium plant response rating (0 to 100 scale): 500 g ai/ha, postemergence, 0 is no effect, 100 is complete control; for Galium plant response rating: Postemergence, 125 g ai/ha, 0 to 100 scale (0 no effect, 100 complete control)
# From the text: as §1, §2
# [11] = test system: barnyardgrass (Echinochloa crus-galli); test: Test A postemergence, visual plant response rating; conditions: for Barnyardgrass plant response rating (0 to 100 scale): 500 g ai/ha, postemergence, 0 is no effect, 100 is complete control; for Barnyardgrass plant response rating: Postemergence, 125 g ai/ha, 0 to 100 scale (0 no effect, 100 complete control)
# From the text: as §1, §2
# [12] = test system: blackgrass (Alopecurus myosuroides); test: Test A postemergence, visual plant response rating; conditions: for Blackgrass plant response rating (0 to 100 scale): 500 g ai/ha, postemergence, 0 is no effect, 100 is complete control; for Blackgrass plant response rating: Postemergence, 125 g ai/ha, 0 to 100 scale (0 no effect, 100 complete control)
# From the text: as §1, §2
# [13] = test system: Italian ryegrass (Lolium multiflorum); test: Test A postemergence, visual plant response rating; conditions: for Ryegrass, Italian plant response rating (0 to 100 scale): 500 g ai/ha, postemergence, 0 is no effect, 100 is complete control; for Ryegrass, Italian plant response rating: Postemergence, 125 g ai/ha, 0 to 100 scale (0 no effect, 100 complete control)
# From the text: as §1, §2
# [14] = test system: pigweed (Amaranthus retroflexus); test: Test A postemergence, visual plant response rating; conditions: for Pigweed plant response rating (0 to 100 scale): 500 g ai/ha, postemergence, 0 is no effect, 100 is complete control; for Pigweed plant response rating: Postemergence, 125 g ai/ha, 0 to 100 scale (0 no effect, 100 complete control)
# From the text: as §1, §2
# [15] = test system: wheat (Triticum aestivum); test: Test A postemergence, visual plant response rating; conditions: for Wheat plant response rating (0 to 100 scale): 500 g ai/ha, postemergence, 0 is no effect, 100 is complete control; for Wheat plant response rating: Postemergence, 125 g ai/ha, 0 to 100 scale (0 no effect, 100 complete control)
# From the text: as §1, §2
# kochia (Kochia scoparia) [16] = test: Test A postemergence, visual plant response rating; conditions: for Kochia plant response rating (0 to 100 scale): 500 g ai/ha, postemergence, 0 is no effect, 100 is complete control; for Kochia plant response rating: Postemergence, 125 g ai/ha, 0 to 100 scale (0 no effect, 100 complete control)
# From the text: as §1, §2
# [17] = test system: foxtail, giant (giant foxtail, Setaria faberii); test: Test A postemergence, visual plant response rating; conditions: for Foxtail, Giant plant response rating (0 to 100 scale): 500 g ai/ha, postemergence, 0 is no effect, 100 is complete control; for Foxtail, Giant plant response rating: Postemergence, 125 g ai/ha, 0 to 100 scale (0 no effect, 100 complete control)
# From the text: as §1, §2
# corn (Zea mays) = test: Test A postemergence, visual plant response rating; conditions: for Corn plant response rating (0 to 100 scale): 500 g ai/ha, postemergence, 0 is no effect, 100 is complete control; for Corn plant response rating: Postemergence, 125 g ai/ha, 0 to 100 scale (0 no effect, 100 complete control)
# From the text: as §1, §2
# [18] = test system: ragweed (common ragweed, Ambrosia elatior); test: Test A postemergence, visual plant response rating; conditions: for Ragweed plant response rating (0 to 100 scale): 500 g ai/ha, postemergence, 0 is no effect, 100 is complete control; for Ragweed plant response rating: Postemergence, 125 g ai/ha, 0 to 100 scale (0 no effect, 100 complete control)
# From the text: as §1, §2
# [19] = 125 g ai/ha, preemergence, 0 to 100 scale, 0 no effect, 100 complete control
SMILES,Barnyardgrass plant response rating (0 to 100 scale) ([1]; 500 g ai/ha Preemergence),"Ryegrass, Italian plant response rating (0 to 100 scale) ([2]; 500 g ai/ha Preemergence)",Pigweed plant response rating (0 to 100 scale) ([3]; 500 g ai/ha Preemergence),Kochia plant response rating (0 to 100 scale) (kochia (Kochia scoparia) [4]; 500 g ai/ha Preemergence),"Foxtail, Giant plant response rating (0 to 100 scale) ([5]; 500 g ai/ha Preemergence)","Plant response rating, Barnyardgrass (0 to 100 scale, 0 is no effect, 100 is complete control) [7]","Plant response rating, Sedge, Umbrella (0 to 100 scale, 0 is no effect, 100 is complete control) [8]","Plant response rating, Ducksalad (0 to 100 scale, 0 is no effect, 100 is complete control) [9]","Plant response rating, Rice (0 to 100 scale, 0 is no effect, 100 is complete control) (rice (Oryza sativa))",Galium plant response rating (0 to 100 scale) [10],Galium plant response rating [10],Barnyardgrass plant response rating (0 to 100 scale) [11],Barnyardgrass plant response rating [11],Blackgrass plant response rating (0 to 100 scale) [12],Blackgrass plant response rating [12],"Ryegrass, Italian plant response rating (0 to 100 scale) [13]","Ryegrass, Italian plant response rating [13]",Pigweed plant response rating (0 to 100 scale) [14],Pigweed plant response rating [14],Wheat plant response rating (0 to 100 scale) [15],also measured
C=CCn1nc(C)c(O)c(C(=NOC)c2cccc(Cl)c2)c1=O (mixture of isomers) [Compound 5],70,20,0,0,10,0,0,0,0,0,0,30,10,50,10,30,0,0,0,0,"Barnyardgrass plant response rating (0 to 100 scale) ([1]; 125 g ai/ha Preemergence): 20; Ryegrass, Italian plant response rating (0 to 100 scale) ([2]; 125 g ai/ha Preemergence): 0; Pigweed plant response rating (0 to 100 scale) ([3]; 125 g ai/ha Preemergence): 0; Kochia plant response rating (0 to 100 scale) (kochia (Kochia scoparia) [4]; 125 g ai/ha Preemergence): 0; Foxtail, Giant plant response rating (0 to 100 scale) ([5]; 125 g ai/ha Preemergence): 0; Ragweed plant response rating (0 to 100 scale) ([6]; 125 g ai/ha Preemergence): 0; Ragweed plant response rating (0 to 100 scale) ([6]; 500 g ai/ha Preemergence): 0; Wheat plant response rating [15]: 0; Kochia plant response rating (0 to 100 scale) (kochia (Kochia scoparia) [16]): 0; Kochia plant response rating (kochia (Kochia scoparia) [16]): 0; Foxtail, Giant plant response rating (0 to 100 scale) [17]: 10; Foxtail, Giant plant response rating [17]: 0; Corn plant response rating (0 to 100 scale) (corn (Zea mays)): 0; Corn plant response rating (corn (Zea mays)): 0; Ragweed plant response rating (0 to 100 scale) [18]: 0; Ragweed plant response rating [18]: 0"
CO/N=C(/c1c(OC(C)=O)c(Cl)nn(C)c1=O)c1cccc2ccccc12 [Compound 132],80,0,80,90,90,0,15,25,0,100,90,60,20,60,40,20,10,70,40,0,"Barnyardgrass plant response rating [1, 19]: 70; Ryegrass, Italian plant response rating [2, 19]: 0; Pigweed plant response rating [3, 19]: 80; Kochia plant response rating (kochia (Kochia scoparia) [4]; [19]): 90; Foxtail, Giant plant response rating [5, 19]: 40; Wheat plant response rating [15]: 0; Kochia plant response rating (0 to 100 scale) (kochia (Kochia scoparia) [16]): 80; Kochia plant response rating (kochia (Kochia scoparia) [16]): 60; Foxtail, Giant plant response rating (0 to 100 scale) [17]: 60; Foxtail, Giant plant response rating [17]: 40; Corn plant response rating (0 to 100 scale) (corn (Zea mays)): 10; Corn plant response rating (corn (Zea mays)): 10; Ragweed plant response rating (0 to 100 scale) [18]: 90; Ragweed plant response rating [18]: 90"
